Results taken from the supplement of paper PMC10307832.

Key:
Test in all cases: relative viability (nuclei count vs DMSO), 5 days (fraction); higher = more cells survive
[1] = compound: CN[C@@H]1C[C@H]2O[C@@](C)([C@@H]1OC)n1c3ccccc3c3c4c(c5c6ccccc6n2c5c31)C(=O)NC4 [Staurosporine] + CC(=O)Nc1cccc(-n2c(=O)n(C3CC3)c(=O)c3c(Nc4ccc(I)cc4F)n(C)c(=O)c(C)c32)c1 [Trametinib] (partner 0.02 µM)
Outline: (§1)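 Nuclei were stained with Hoechst during a one-step fixation (final 0.05% Triton X-100, 1% formaldehyde, 1 ug/ml Hoechst) carried out 5 days after dosing, then counted on 4× images. The cells, lung cancer lines in 1536-well plates, had been dosed by pin tool the day after seeding with one drug alone or a fixed anchor-drug dose plus five library-drug doses (not always all listed) in √10 steps. Relative viability is the nuclei count in treated wells divided by that in vehicle wells, and each value is the median of duplicate plates.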

[2] = compound: CC1=C(CC(=O)O)c2cc(F)ccc2/C1=C\c1ccc([S+](C)[O-])cc1 [Sulindac] + CC(=O)c1c(C)c2cnc(Nc3ccc(N4CCNCC4)cn3)nc2n(C2CCCC2)c1=O [Palbociclib] (partner 0.5 µM)
Outline: as §1

[3] = compound: O=c1[nH]cc(F)c(=O)[nH]1 [5-Fluorouracil] + CCNC(=O)c1noc(-c2cc(C(C)C)c(O)cc2O)c1-c1ccc(CN2CCOCC2)cc1 [Luminespib] (partner 0.01 µM)
Outline: as §1

[4] = compound: CN[C@@H]1C[C@H]2O[C@@](C)([C@@H]1OC)n1c3ccccc3c3c4c(c5c6ccccc6n2c5c31)C(=O)NC4 [Staurosporine] + Cc1nc(NC(=O)N2CCC[C@H]2C(N)=O)sc1-c1ccnc(C(C)(C)C(F)(F)F)c1 [Alpelisib] (partner 2 µM)
Outline: as §1

Cell Line | relative viability ([1]; first compound 0.005 µM) | relative viability ([1]; first compound 0.01581 µM) | relative viability ([1]; first compound 0.05 µM) | relative viability ([1]; first compound 0.1581 µM) | relative viability ([1]; first compound 0.5 µM) | relative viability ([2]; first compound 0.08 µM) | relative viability ([2]; first compound 0.253 µM) | relative viability ([2]; first compound 0.8 µM) | relative viability ([2]; first compound 2.53 µM) | relative viability ([2]; first compound 8 µM) | relative viability ([3]; first compound 0.02 µM) | relative viability ([3]; first compound 0.2 µM) | relative viability ([3]; first compound 0.6325 µM) | relative viability ([3]; first compound 2 µM) | relative viability ([4]; first compound 0.005 µM) | relative viability ([4]; first compound 0.01581 µM) | relative viability ([4]; first compound 0.05 µM) | relative viability ([4]; first compound 0.1581 µM) | relative viability ([4]; first compound 0.5 µM)
NCI-H23 | 0.315 | 0.165 | 0.172 | 0.0936 | 0.119 | 0.613 | 0.549 | 0.495 | 0.505 | 0.589 | 0.201 | 0.205 | 0.196 | 0.212 | 0.437 | 0.317 | 0.218 | 0.206 | 0.131
NCI-H1395 | 0.98 | 0.77 | 0.476 | 0.305 | 0.261 | 0.545 | 0.563 | 0.708 | 0.627 | 0.728 | 0.638 | 0.675 | 0.743 | 0.658 | 1.05 | 0.474 | 0.366 | 0.498 | 0.271
NCI-H647 | 0.295 | 0.151 | 0.0868 | 0.0601 | 0.0349 | 0.462 | 0.469 | 0.339 | 0.431 | 0.439 | 0.166 | 0.157 | 0.243 | 0.136 | 0.51 | 0.218 | 0.117 | 0.0645 | 0.0592
NCI-H520 | 0.708 | 0.536 | 0.303 | 0.16 | 0.112 | 0.231 | 0.239 | 0.221 | 0.244 | 0.278 | 0.19 | 0.236 | 0.19 | 0.21 | 1.2 | 0.784 | 0.544 | 0.477 | 0.165
